# From paper PMC6753678, “Fueling Open Innovation for Malaria Transmission-Blocking Drugs: Hundreds of Molecules Targeting Early Parasite Mosquito Stages” (Frontiers in Microbiology, 2019)
# Read-outs that look alike come from different tables or passages of the source.
# Key:
# [1] = system: P. berghei ookinete development; settings: for % inhibition, Replicate A / % inhibition, Replicate B: primary screen at 1 μM
# HepG2 cells = test: HepG2 cytotoxicity assay; settings: for IC50: read-out: HepG2 cytotoxicity assay IC50, dose response confirmation; for Pb ODA (this manuscript) HepG2 cytoxicity: HepG2 cytotoxicity listed with the Pb ODA data set (this manuscript)
# Outline: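 Percent inhibition derived from fluorescent viability readout, normalised to DMSO (negative) and 50 μM doxorubicin (positive). Compound incubation lasted 48 h at 37°C, 5% CO2, with 2,500 HepG2 cells/well in MEM plus 10% FBS and 1% NEAA.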
# [2] = system: 3D7-strain P. falciparum asexual parasites; test: P. falciparum asexual growth inhibition assay (Pf GIA); assay type: cell-based, Plasmodium falciparum; settings: dose response confirmation; read-out: Pf asexual growth inhibition assays IC50
# Outline: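 Read-out was lactate dehydrogenase activity measured by absorbance at 650 nm after freezing and thawing, against 50 μM chloroquine and DMSO controls. Before that, asexual 3D7 cultures (0.25% parasitemia, 2% hematocrit) had 72 h dose-response compound exposure at 37°C in 5% CO2/5% O2/90% N2; three independent replicates averaged.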
# [3] = HepG2 values of the three screens unified
# [4] = read-out: Pb ODA IC50, this manuscript
# [5] = read-out: Pb Ookinete development assay IC50, dose response confirmation
# [6] = unified HepG2 value across the three screens
# [7] = read-out: Pb ODA (this manuscript) IC50, P. berghei ookinete development assay, this manuscript
Compound,"% inhibition, Replicate A [1]","% inhibition, Replicate B [1]",IC50 ([1]; read-out: Pb ODA IC50),IC50 ([1]; read-out: Pb Ookinete development assay IC50),"HepG2 cytoxicity (Pb ODA, this manuscript) (HepG2 cells)",Unified cytotox (HepG2 cells; [3]),IC50 (HepG2 cells),IC50 [2],"Is compound selective in assay? Pb ODA active? ([1]; 1: YES, 0: NO)","IC50 [1, 4]","IC50 [1, 5]",Unified cytotox (HepG2 cells; [6]),Is compound selective in assay? Pb ODA active? [1],Pb ODA (this manuscript) HepG2 cytoxicity (HepG2 cells),"IC50 [1, 7]","% inhibition, Replicate A ([1]; 1 µM)","% inhibition, Replicate B ([1]; 1 µM)"
CCC(C)(C)n1c(C)cc2c3c(N)nc(N)nc3ccc21 [TCMDC-137307],47.56%,73.34%,1190 nM,1190 nM,0.00169 µM,0.00169 µM,1.69 nM,0.9 nM,–,–,–,–,–,–,–,–,–
CCOC(=O)c1c(CN2CCCC2)n(-c2ccccc2)c2cc(Br)c(O)cc12 [TCMDC-124122],64.42%,39.97%,–,–,–,–,71600 nM,658 nM,0 (0: NO),7760 nM,7760 nM,71.61 µM,–,–,–,–,–
COc1ccc2c(=O)c(I)c(C)[nH]c2c1 [TCMDC-138141],99.28%,96.77%,–,–,–,–,1.7 nM,< 0.3 nM,–,–,140 nM,–,0 (key: 1: YES; 0: NO),0.0017 µM,–,–,–
Cc1cc(SC(C)(C)C)cc2c(Cl)c(C(N)=O)cnc12 [TCMDC-135415],28.78%,60.54%,–,–,–,–,1360 nM,69 nM,0 (0: NO),2710 nM,2710 nM,1.36 µM,–,–,–,–,–
Cc1cc(=O)c2cc(-c3ccc(OC(F)(F)F)cc3)ccc2[nH]1 [TCMDC-137042],37.82%,64.25%,–,–,–,–,100000 nM,2190 nM,1 (1: YES),6380 nM,6380 nM,100.00 µM,–,–,–,–,–
CCCCCCCc1c(C)nc2c(OC)cccc2c1O [TCMDC-138016],91.04%,66.93%,–,–,–,–,100000 nM,195 nM,–,–,529 nM,–,1 (key: 1: YES; 0: NO),100.00 µM,530 nM,–,–
Cc1c(Cc2ccccc2Br)cnc2nc(N)nc(N)c12.Cl [TCMDC-137244],44.00%,63.36%,–,–,–,–,7.76 nM,4 nM,–,–,8490 nM,–,0 (key: 1: YES; 0: NO),0.00776 µM,8490 nM,–,–
CCOC(=O)c1c[nH]c2c(ccc3ccccc32)c1=O [TCMDC-123857],88.11%,83.13%,–,–,–,–,100000 nM,443 nM,1 (1: YES),560 nM,562 nM,100.00 µM,–,–,–,–,–
COc1ccc2ncc(F)c(NC(=O)C3CCC(NCc4cc5c(F)cccc5[nH]4)CC3)c2n1.Cl (stereo not drawn) [TCMDC-136354],86.49%,82.69%,–,–,–,–,3630 nM,475 nM,–,–,252 nM,–,1 (key: 1: YES; 0: NO),3.63 µM,250 nM,–,–
Cc1nc(C)c(-c2ccc(Cl)cc2)c(O)c1I [TCMDC-137424],40.29%,60.84%,–,–,–,–,100000 nM,239 nM,–,–,1840 nM,–,1 (key: 1: YES; 0: NO),100.00 µM,1840 nM,–,–
Cc1noc(C)c1-c1ccc2c(Nc3ccc(C#N)cc3)c(C(N)=O)cnc2c1 [TCMDC-136029],61.24%,98.78%,–,–,–,–,69200 nM,609 nM,–,–,3830 nM,–,1 (key: 1: YES; 0: NO),69.18 µM,3830 nM,–,–
Cc1cc(C2NC(=O)c3ccccc3N2)c(C)n1-c1ccc2c(c1)OCO2 (stereo not drawn) [TCMDC-125051],87.88%,98.84%,–,–,–,–,3470 nM,51 nM,0 (0: NO),850 nM,854 nM,3.47 µM,–,–,–,–,–
COc1c(C)[nH]c(C)c(-c2ccc(Oc3cccc(C(F)(F)F)c3)cc2)c1=O [TCMDC-135253],56.53%,75.40%,–,–,–,–,1300 nM,937 nM,–,–,3600 nM,–,0 (key: 1: YES; 0: NO),1.30 µM,3600 nM,–,–
Cl.O=C(NC1CCN(CC2(c3ccc(Cl)cc3)CCCCC2)CC1)c1cc[nH]n1 [TCMDC-124828],40.92%,76.27%,–,–,–,–,35900 nM,66 nM,–,–,1620 nM,–,1 (key: 1: YES; 0: NO),35.89 µM,1620 nM,–,–
COc1ccc2ncc(C#N)c(CCN3CCC(NCc4ccc5c(c4)NC(=O)CO5)CC3)c2c1.Cl [TCMDC-135645],122.09%,92.16%,–,–,–,–,38900 nM,553 nM,–,–,457 nM,–,1 (key: 1: YES; 0: NO),38.90 µM,460 nM,–,–
Cc1[nH]c(C)c(-c2ccc(Oc3ccc(F)cc3)cc2)c(=O)c1Cl [TCMDC-134728],96.35%,103.17%,–,–,56.23 µM,56.23 µM,56200 nM,19 nM,1 (1: YES),50 nM,49 nM,–,–,–,–,–,–
Cl.O=C1CSc2ccc(CNC3CCN(CCc4c(Cl)cnc5ccc(Cl)cc45)CC3)nc2N1 [TCMDC-141959],64.42%,30.41%,–,–,17.78 µM,17.78 µM,17800 nM,320 nM,0 (0: NO),4220 nM,4220 nM,–,–,–,–,–,–
Cc1cccc(Nc2nc(NCCCCN)nc3cc[nH]c(=O)c23)c1.O=C(O)C(F)(F)F [TCMDC-134946],57.54%,45.06%,–,–,–,–,28800 nM,487 nM,0 (0: NO),3060 nM,3060 nM,28.84 µM,–,–,–,–,–
Cc1cc(=O)c(-c2ccc(Oc3cccc(C(F)(F)F)c3)cc2)c(C)[nH]1 [TCMDC-137536],–,–,–,–,–,–,100000 nM,3230 nM,–,–,2650 nM,–,1 (key: 1: YES; 0: NO),100.00 µM,2650 nM,91.76%,80.63%
CS(=O)(=O)Cc1ccc(Nc2ncc(Cl)c(Nc3cccnc3C(N)=O)n2)cc1.Cl [TCMDC-134165],41.15%,108.98%,–,–,–,–,100000 nM,969 nM,–,–,699 nM,–,1 (key: 1: YES; 0: NO),100.00 µM,700 nM,–,–
Nc1nc(N)c2c(ccc3c2ccn3CCCC(F)(F)F)n1 [TCMDC-138622],33.98%,53.93%,–,–,0.37 µM,0.37 µM,370 nM,105 nM,0 (0: NO),6060 nM,6060 nM,–,–,–,–,–,–
CC1CN(Cc2cccc(C#N)c2)CCN1c1ccc(NC(=O)c2cccs2)cc1.O=C(O)C(F)(F)F (stereo not drawn) [TCMDC-134969],50.06%,40.18%,–,–,–,–,3020 nM,78 nM,–,–,1640 nM,–,0 (key: 1: YES; 0: NO),3.02 µM,–,–,–
COc1c(F)ccc2ncc(Cl)c(CCN3CCC(NCc4ccc5c(n4)NC(=O)CS5)CC3)c12.Cl [TCMDC-141955],54.74%,63.10%,–,–,23.99 µM,23.99 µM,24000 nM,1190 nM,1 (1: YES),1900 nM,1900 nM,–,–,–,–,–,–
Cc1nc(C)c(-c2ccc(Oc3cc(Cl)cc(Cl)c3)cc2)c(O)c1Br [TCMDC-137392],78.18%,115.81%,–,–,19.95 µM,19.95 µM,20000 nM,498 nM,1 (1: YES),450 nM,447 nM,–,–,–,–,–,–
